Test results from paper PMC12348844, “Anti-Trypanosoma cruzi Potential of New Pyrazole-Imidazoline Derivatives” (Molecules, 2025).
Like-named read-outs stand apart in the source and are kept apart here.

Legend:
[1] = system: T. cruzi cysteine protease; experiment: Cysteine protease activity in trypomastigote protein extract (Z-Phe-Arg-AMC); assay type: biochemical, Trypanosoma cruzi; conditions: 90 min, 37 °C, 33.3, 100 and 300 µM tested
Protocol: Total proteins from T. cruzi Dm28c-Luc were extracted using a lysis buffer [100 mM Tris-HCl pH 8.0, 150 mM NaCl, 10% glycerol, 0.5% Triton X-100]. The protein concentration was quantified using the Bradford assay, with bovine serum albumin (BSA) used to establish the standard curve. For the assessment of cysteine protease activity, 5 μg of the protein extract was incubated in an acetate buffer [10 mM sodium acetate, pH 5.0], supplemented with 1 mM dithiothreitol (DTT) in a final volume of 100 μL. The reaction used a fluorogenic peptide substrate, N-benzoyloxycarbonyl-L-phenylalanyl-L-arginine 7-amino-4-methylcoumarin (Z-FR-AMC), at a concentration of 60 μM. Incubation was conducted at 37 °C for 90 min, with relative fluorescence changes measured using a SpectraMax M2e spectrophotometer (Molecular Devices, Sunnyvale, CA, USA). Inhibition assays were performed using three concentrations (33.3, 100, and 300 µM) of the promising candidate and trans-epoxysuccinyl-L-leucylamido(4-guanidino)butane (E-64), each analyzed separately. A control was included using a low DMSO concentration (≤1%). Enzymatic activity was expressed in µmol/min/mg of protein, with residual activity presented as a percentage.

[2] = system: T. cruzi Dm28c-Luc trypomastigotes; experiment: Anti-T. cruzi in vitro assay, trypomastigotes (luminescence); assay type: cell-based; conditions: Trypanosoma cruzi, 24 h, mean ± SD
Protocol: (§1) The genetically modified Trypanosoma cruzi, clone Dm28c (TcI), expressing luciferase (Dm28c-Luc), was kindly provided by Dr. Cristina Henriques from Oswaldo Cruz Institute—Fiocruz. The parasites were maintained using Vero cell cultures in RPMI 1640 medium enriched with 10% FBS. At 4 days post-infection (dpi), the trypomastigotes released into the culture supernatant were harvested, subjected to centrifugation at 800× g for 20 min at 4 °C, and quantified with a Neubauer chamber. The isolated trypomastigotes were subsequently used for phenotypic screening, drug efficacy assessments employing a 3D cardiac model, washout experiments to evaluate reversibility, drug combination studies, and enzymatic assays.
Drug susceptibility assays were performed on T. cruzi Dm28c-Luc, a genetically engineered parasite expressing luciferase. The drug screening used both trypomastigotes and intracellular amastigotes. Trypomastigotes (1 × 10^6 parasites/well) were added to white 96-well plates with clear bottoms. […] The luminescence was measured using a Glomax Multi-Detection plate reader (Promega Corporation, Madison, WI, USA).

[3] = system: T. cruzi Dm28c-Luc intracellular amastigotes; experiment: Anti-T. cruzi in vitro assay, intracellular amastigotes in Vero cells (luminescence); assay type: cell-based, Trypanosoma cruzi; conditions: for IC50 / IC90: Trypanosoma cruzi
Protocol: as §1
To evaluate the effect of pyrazole-imidazoline derivatives against intracellular amastigotes, Vero cells (1.5 × 10^4 cells/well) were cultured in a white 96-well plate with a clear bottom and subsequently infected with T. cruzi Dm28c-Luc at a 10:1 parasite-to-host cell ratio for 24 h. […] Parasite viability was measured by luminescence following the addition of luciferin (300 µg/mL). Background measurements (non-infected cultures incubated with luciferin, as well as luciferin-only controls) were performed to ensure the signal specifically originates from viable parasites. The IC50 and IC90 values, denoting the concentrations that achieve 50% and 90% reductions in viable parasites, respectively, were calculated using GraphPad Prism 8.2.1 software. Additionally, the selectivity index (SI) was calculated as the cytotoxic concentration (CC50) ratio in mammalian cells to the IC50 against T. cruzi, providing insight into the therapeutic window. Potency against intracellular amastigotes was evaluated using the formula 6—Log10 (IC50).

[4] = Cytotoxicity assay, Vero cells (CellTiter-Glo); assay type: cell-based; conditions: African green monkey, mean ± SD
Protocol: Vero cells, obtained from the Rio de Janeiro Cell Bank (BCRT code 0245) and maintained through weekly subculturing with a dissociation solution containing 0.25% trypsin-EDTA, initiated once the monolayer reached an 80–100% confluence. Following harvesting, the cells were washed and resuspended in RPMI 1640 medium enriched with 10% fetal bovine serum (FBS). Cultures were maintained at 37 °C in a 5% CO2-humidified incubator. These cultures were used for drug screening assays and for producing culture-derived trypomastigotes of T. cruzi.
Cytotoxicity assays were performed using Vero cells, which were seeded at a density of 1.5 × 10^4 cells per well in white 96-well plates with clear bottoms. Following a 24 h adhesion period, the cultures were incubated at 37 °C in a 5% CO2 atmosphere. […] After 72 h of incubation, cell viability was assessed by adding CellTiter-Glo reagent (Promega Corporation, Madison, WI, USA), which induces cell lysis and reacts with the released ATP to produce luminescence. The resulting luminescence was measured using a Glomax Multi-Detection plate reader (Promega Corporation, Madison, WI, USA). The half-maximal inhibitory concentration (CC50) for cell viability was then calculated using GraphPad Prism software version 8.2.1.

T. cruzi (Dm28c-Luc) = experiment: Reversibility (washout) assay in T. cruzi-infected Vero cells; assay type: cell-based, Trypanosoma cruzi
Protocol: After treatment, the cultures were thoroughly washed, and parasite recrudescence was evaluated over an extended period of 10 days in RPMI medium supplemented with 10% fetal bovine serum (FBS). Culture supernatants were collected at intervals, and the luminescence signal indicative of trypomastigote release was assessed using a Glomax Multi-Detection plate reader (Promega Corporation, Madison, WI, USA) following the addition of luciferin every 2–3 days. At the experiment’s conclusion, the infection profile of the monolayer was also examined. Cells were fixed with PFA for 20 min at 4 °C, then stained with DAPI for microscopy analysis. Luminescence data were expressed in arbitrary luminescent units (A.L.U), and fluorescence images were acquired using the ImageXpress Micro XLS high-content screening (HCS) system (Molecular Devices, Sunnyvale, CA, USA).

[5] = system: intracellular amastigotes of T. cruzi; experiment: Drug combination with Bz, fixed-ratio isobologram, intracellular amastigotes; assay type: cell-based; conditions: Trypanosoma cruzi; proportion 1k:Bz 0:5, 72 h; read-out: IC50 (Mean ± DP) in combination assay
Protocol: The isobologram approach assessed the interaction between Bz and the promising candidate in intracellular amastigotes of T. cruzi. Vero cell cultures infected with T. cruzi (Dm28c-Luc) were treated for 72 h with various concentrations of combinations of Bz and the promising candidate, specifically at ratios of 5:0; 4:1; 3:2; 2:3; 1:4 and 0:5. The maximum concentration of each compound was established based on their IC50 values, ensuring both reached the fourth dilution in the serial dilution setup (1:3), culminating in a total of seven dilutions. After 72 h of treatment, parasite viability was measured by luminescence in a Glomax Multi-Detection plate reader (Promega Corporation, Madison, WI, USA) after incubation with luciferin. The IC50 values of each treatment combination were calculated individually, and the fractional inhibitory concentration index (FICI) was derived using the formula FICI = IC50 of the combination/IC50 of the compound alone. The overall FICI (ΣFICI) was calculated by summing the FICIs for both compounds in each combination group, while the average ΣFICI (xΣFICI) represented the overall mean across all combination groups. The xΣFICI values were then employed to classify the interaction as synergistic (xΣFICI ≤ 0.5), additive (0.5 < xΣFICI < 4), or antagonistic (xΣFICI > 4). […]

[6] = Vero, intracellular amastigotes, 6 − Log10(IC50), read-out: pIC50 (potency) (converted)
[7] = 72 h, Dm28c-Luc in Vero cells, mean ± SD

| SMILES | inhibition of cysteine protease activity [1] [%] | IC50 [2] [µM] | IC90 [2] [µM] | IC50 [3, 6] [µM] | IC90 [3, 7] [µM] | IC50 ([3]; 72 h, Dm28c-Luc in Vero cells, mean ± SD, read-out: Intracellular Amastigotes IC50) [µM] | CC50 at 72 h [4] [µM] | reduction of parasite load of cell monolayer at 21 dpi (T. cruzi (Dm28c-Luc); 100 µM, 10 days treatment + 10 days washout) [%] | parasite load of cell monolayer at 21 dpi (luminescence) (T. cruzi (Dm28c-Luc); 100 µM, untreated 5 × 10^5 A.L.U) | sterility of cultures in reversibility assay (T. cruzi (Dm28c-Luc); 10 days treatment, tested conditions) | IC50 [5] [µM] | SI (selectivity index = CC50/IC50) ([3]; CC50 Vero cells / IC50 intracellular amastigotes) | IC50 ([3]; Vero, 72 h, Dm28c-Luc in Vero cells, mean ± SD, read-out: Intracellular Amastigotes IC50) [µM] |
| --- | --- | --- | --- | --- | --- | --- | --- | --- | --- | --- | --- | --- | --- |
| CC(C)C[C@H](NC(=O)[C@H]1O[C@@H]1C(=O)O)C(=O)NCCCCN=C(N)N (relative stereo) [E-64, trans-epoxysuccinyl-L-leucylamido(4-guanidino)butane, reference compound] | 92.81 | – | – | – | – | – | – | – | – | – | – | – | – |
| O=C(Cn1ccnc1[N+](=O)[O-])NCc1ccccc1 [Bz, Benznidazole, reference compound] | – | 20.5 ± 1.8 | > 100 | 2.51 | 10.4 ± 0.5 | 2.2 ± 0.4 | > 500 | 98.4 | 8 × 10^3 A.L.U | failed to achieve sterility | 2.3 ± 0.07 | – | – |
| Nc1c(C2=NCCN2)cnn1-c1cc(C(F)(F)F)cc(C(F)(F)F)c1 [1l, 5-amino-1-((3,5-ditrifluoromethyl)phenyl)-4-(4,5-dihydro-1H-imidazol-2-yl)-1H-pyrazole] | – | > 100 | > 100 | 31.6 | 80.1 ± 11.4 | – | 464 ± 15.2 | – | – | – | – | 16.7 | 27.7 ± 2 |
